Laboratory results as given in patent US5204327A, “Treatment of cerebral edema with ANP pharmaceutical compositions” (Ashi Kasei Kogyo Kabushiki Kaisha, priority 1988, dated 1993).

Columns and labels:
[1] = system: vasogenic cerebral edema caused by cold injury; assay: Effect on experimental vasogenic cerebral edema (cold injury); format: in vivo, male Crj:CD (SD) rats; details: rats
Procedure: Using 42 male Crj:CD (SD) rats weighing 300 to 400 g, model animals of vasogenic cerebral edema caused by cold injury were prepared according to the method of Naruse et al. (Brain and Nerve, 33 (6): 569-575 (1981)). (Administration method)
(§1) Peptide (II) obtained in Reference Example 1 was diluted with a physiological saline so that the peptide concentration became 100 μg/3 ml. The solution containing the peptide was continuously administered to eleven rats through the tail vein thereof in an amount of 10 ml per kg of body weight so that the total dose of the administered peptide became 100 μg per kg of body weight, to thereby obtain a peptide (II)-administeredgroup.
Peptide (III) was administered to eight rats in the same manner as described above except that peptide (III) was used instead of peptide (II), to thereby obtain a peptide (III)-administered group.
As a control (solvent), 3 ml per kg of body weight of the physiological saline was administered to eleven rats in substantially the same manner as mentioned above, to thereby obtain a physiological saline-administered group.
As a control for the peptide, an aqueous 10% w/v glycerol solution containing 5% w/v fructose and 0.9% w/v sodium chloride was administered to twelve rats so that the total volume of the administered solution became 10 ml per kg of body weight, to thereby obtain a glycerol-administered group.
The administration of each of the peptide (II) solution, peptide (III) solution and physiological saline was started one hour before the making of cold injury and completed in 90 minutes. On the other hand, the administration of the glycerol solution was started 23 hours after the making of cold injury and completed in 30 minutes in accordance with the ordinary clinical method, so that the total volume of the administered glycerol solution became 10 ml/kg of body weight.
24 hours after the rats had been subjected to cold injury, rats were sacrificed under ether anesthesia. […]
The water content of each of the hemispheres was measured in substantially the same manner as in Example 1. […]

[2] = system: vasogenic cerebral edema caused by cold injury; assay: Effect on experimental vasogenic cerebral edema (investigation of administration time); format: in vivo, male Crj:CD (SD) rats; details: for Water content of injured cerebral hemisphere (the mean ± standard error): peptide 100 μg/kg, glycerol solution 10 ml/kg, 24 hours after injury
Procedure: Using 212 male Crj:CD (SD) rats weighing 300 to 400 g, model animals of vasogenic cerebral edema caused by cold injury were prepared according to the method of Naruse et al. (Brain and Nerve, 33 (6): 569-575 (1981).
as §1, with “to a predetermined number of” for “to eleven”, “of 3” for “of 10”, “weight in 90 min” for “weight”, “body weight. Thus, there were obtained six” for “body weight, to thereby obtain a”, “peptide (II)-administered groups.” for “peptide (II)-administeredgroup.”
As a control (solvent), 3 ml per kg of body, weight of the physiological saline was administered to a predetermined number of rats in substantially the same manner as mentioned above, to thereby obtain six physiological saline-administered groups.
As a control for the peptide, an aqueous 10% w/v glycerol solution containing 5% w/v fructose and 0.9% w/v sodium chloride was administered to a predetermined number of rats in substantially the same manner as mentioned above so that the total volume of the administered solution became 10 ml per kg of body weight, to thereby obtain six glycerol-administered groups.
24 hours after the rats were subjected to injury, rats were exsanguinated under ether anesthesia to kill them. Then, cerebra were extracted from the killed rats and each of the cerebra was individually divided into two cerebral hemispheres, namely, a hemisphere having ischemic part and a hemisphere having no ischemic part. The water content of each of the hemispheres was measured in substantially the same manner as in Example 1. In Table 3, the mean and the standard error of the water content of a brain tissue are shown together with the number of rats (n) subjected to experiment in each group.

[3] = system: ischemic cerebral edema caused by occlusion of middle cerebral artery; assay: Effect on experimental ischemic cerebral edema (MCA occlusion, Tamura model); format: in vivo, male Wistar rats; details: rats
Procedure: Using 41 male Wistar rats weighing 250 to 350 g, model animals of ischemic cerebral edema caused by occlusion of middle cerebral artery (hereinafter referred to as "MCA") were prepared according to the method of Tamura et al. (Journal of Cerebral Blood Flow and Metabolism, 1, 53-69 (1981)).
as §1, with “μg/10” for “μg/3”, “weight in 20 min” for “weight”, “weight.” for “weight, to thereby obtain a peptide (II)-administeredgroup.”
The administration was conducted 6 times according to the following program. The first administration was conducted 30 minutes after the occlusion of MCA. The second administration was conducted in the morning of the next day of the first administration (2nd day). The third administration was conducted after 6 hours from the second administration. The fourth administration was conducted in the morning of the next day of the third administration (3rd day). […]
After one hour from the sixth administration, that is, 3 days after the rats had been subjected to occlusion of MCA, the rats were sacrificed. […] The water content of each of the hemispheres was measured.
The water content of a brain tissue was calculated by the following formula: [formula] wherein: W1 : weight of the cerebral hemisphere (wet basis)
W2 weight of the cerebral hemisphere (dry basis), which is measured after drying the wet cerebral hemisphere at 95° to 100° C. for 3 days.
The water contents calculated were statistically analyzed by the T-test to determine whether or not there is a significant difference between the water content of each of the groups to which peptide (II), peptide (III) and glycerol were individually administered and the water content of the control group to which physiological saline was administered. […]

[4] = 24 hours after cold injury, peptide 100 μg/kg tail vein started one hour before injury, 90 min, glycerol solution 10 ml/kg started 23 hours after injury
[5] = 3 days after MCA occlusion, peptide 100 μg/kg (glycerol 1 g/kg) tail vein, 6 administrations

## OCC(O)CO [Glycerol, glycerol]
[1]; [4]
  Water content of brain tissue (the mean ± standard error), injured cerebral hemisphere: 80.65 ± 0.23
  Water content of brain tissue (the mean ± standard error), not injured cerebral hemisphere: 79.62 ± 0.19
[1]; cold injury
  increase in water content of the injured cerebral hemisphere, compared to physiological saline-administered group: not so markedly inhibited
[2]; administered just after making the cold injury
  increase in water content of a cerebral hemisphere, compared to physiological saline-administered groups: significantly inhibited
[2]; administration 3 hours after the making of cold injury
  Water content of injured cerebral hemisphere (the mean ± standard error): 81.08 ± 0.20
[2]; administration 6 hours after the making of cold injury
  Water content of injured cerebral hemisphere (the mean ± standard error): 81.24 ± 0.19
[2]; administration 22 hours after the making of cold injury
  Water content of injured cerebral hemisphere (the mean ± standard error): 81.05 ± 0.17
[2]; administration during the making of cold injury
  Water content of injured cerebral hemisphere (the mean ± standard error): 80.79 ± 0.10
[2]; administration just after the making of cold injury
  Water content of injured cerebral hemisphere (the mean ± standard error): 80.77 ± 0.14
[2]; administration just before the making of cold injury
  Water content of injured cerebral hemisphere (the mean ± standard error): 81.22 ± 0.20
[2]; remaining administration times (all except just after the cold injury)
  increase in water content of the injured cerebral hemisphere, compared to physiological saline-administered groups: not significantly inhibited
[3]; [5]
  Water content of brain tissue (the mean ± standard error), hemisphere having ischemic part: 79.34 ± 0.15
  Water content of brain tissue (the mean ± standard error), hemisphere having no ischemic part: 78.51 ± 0.14
[3]; MCA occlusion, T-test
  increase in water content of the cerebral hemisphere having ischemic part, compared to physiological saline-administered group: significantly inhibited
